PubChem BioAssay (NCI)
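Test compounds were applied to cells in 96-well plates for 48 hours at 5 doses. The concentration for 50% growth inhibition is given as GI50. The concentration for full growth arrest is given as TGI.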

Tests used:
Assay in all cases: inhibition of tumour cell growth, NCI panel, 48 h
OVCAR-8 ovarian = test system: OVCAR-8 ovarian
RPMI-8226 leukemia = test system: RPMI-8226 leukemia
A549 NSCLC = test system: A549 NSCLC
LOX IMVI melanoma = test system: LOX IMVI melanoma
SK-MEL-28 melanoma = test system: SK-MEL-28 melanoma
SN12C renal = test system: SN12C renal
KM12 colon = test system: KM12 colon
PC-3 prostate = test system: PC-3 prostate
HOP-92 NSCLC = test system: HOP-92 NSCLC
HCC-2998 colon = test system: HCC-2998 colon
NCI/ADR-RES ovarian = test system: NCI/ADR-RES ovarian
MDA-MB-231 breast = test system: MDA-MB-231 breast
T-47D breast = test system: T-47D breast
SK-MEL-2 melanoma = test system: SK-MEL-2 melanoma
EKVX NSCLC = test system: EKVX NSCLC
OVCAR-5 ovarian = test system: OVCAR-5 ovarian
M14 melanoma = test system: M14 melanoma
NCI-H23 lung = test system: NCI-H23 lung
SK-MEL-5 melanoma = test system: SK-MEL-5 melanoma
ACHN renal = test system: ACHN renal
RXF 393 renal = test system: RXF 393 renal
U251 CNS = test system: U251 CNS
OVCAR-3 ovarian = test system: OVCAR-3 ovarian
COLO 205 colon = test system: COLO 205 colon
MDA-MB-435 = test system: MDA-MB-435
DU-145 prostate = test system: DU-145 prostate
SK-OV-3 ovarian = test system: SK-OV-3 ovarian
MCF7 breast = test system: MCF7 breast
UO-31 renal = test system: UO-31 renal
SF-539 CNS = test system: SF-539 CNS
BT-549 breast = test system: BT-549 breast
SF-295 CNS = test system: SF-295 CNS
CCRF-CEM leukemia = test system: CCRF-CEM leukemia
NCI-H522 lung = test system: NCI-H522 lung
SF-268 CNS = test system: SF-268 CNS
K-562 leukemia = test system: K-562 leukemia
786-0 renal = test system: 786-0 renal
IGROV1 ovarian = test system: IGROV1 ovarian
HL-60(TB) leukemia = test system: HL-60(TB) leukemia
TK-10 renal = test system: TK-10 renal
CAKI-1 renal = test system: CAKI-1 renal
HT29 colon = test system: HT29 colon
SNB-19 CNS = test system: SNB-19 CNS
NCI-H460 lung = test system: NCI-H460 lung
SW-620 colon = test system: SW-620 colon
MOLT-4 leukemia = test system: MOLT-4 leukemia
A498 renal = test system: A498 renal
MALME-3M melanoma = test system: MALME-3M melanoma
OVCAR-4 ovarian = test system: OVCAR-4 ovarian
UACC-257 melanoma = test system: UACC-257 melanoma
UACC-62 melanoma = test system: UACC-62 melanoma
HCT-116 colon = test system: HCT-116 colon
SNB-75 CNS = test system: SNB-75 CNS
NCI-H226 lung = test system: NCI-H226 lung
HS 578T breast = test system: HS 578T breast
HCT-15 colon = test system: HCT-15 colon
HOP-62 NSCLC = test system: HOP-62 NSCLC

## CC(C)[C@H](N)C(=O)N1CCC[C@H]1B(O)O
OVCAR-8 ovarian
  GI50: > 100 µM
  TGI: > 100 µM
RPMI-8226 leukemia
  GI50: > 100 µM
  TGI: > 100 µM
A549 NSCLC
  GI50: > 100 µM
  TGI: > 100 µM
LOX IMVI melanoma
  GI50: > 100 µM
  TGI: > 100 µM
SK-MEL-28 melanoma
  GI50: > 100 µM
  TGI: > 100 µM
SN12C renal
  GI50: > 100 µM
  TGI: > 100 µM
KM12 colon
  GI50: > 100 µM
  TGI: > 100 µM
PC-3 prostate
  GI50: > 100 µM
  TGI: > 100 µM
HOP-92 NSCLC
  GI50: > 100 µM
  TGI: > 100 µM
HCC-2998 colon
  GI50: > 100 µM
  TGI: > 100 µM
NCI/ADR-RES ovarian
  GI50: > 100 µM
  TGI: > 100 µM
MDA-MB-231 breast
  GI50: > 100 µM
  TGI: > 100 µM
T-47D breast
  GI50: > 100 µM
  TGI: > 100 µM
SK-MEL-2 melanoma
  GI50: > 100 µM
  TGI: > 100 µM
EKVX NSCLC
  GI50: > 100 µM
  TGI: > 100 µM
OVCAR-5 ovarian
  GI50: > 100 µM
  TGI: > 100 µM
M14 melanoma
  GI50: > 100 µM
  TGI: > 100 µM
NCI-H23 lung
  GI50: > 100 µM
  TGI: > 100 µM
SK-MEL-5 melanoma
  GI50: > 100 µM
  TGI: > 100 µM
ACHN renal
  GI50: > 100 µM
  TGI: > 100 µM
RXF 393 renal
  GI50: > 100 µM
  TGI: > 100 µM
U251 CNS
  GI50: > 100 µM
  TGI: > 100 µM
OVCAR-3 ovarian
  GI50: > 100 µM
  TGI: > 100 µM
COLO 205 colon
  GI50: > 100 µM
  TGI: > 100 µM
MDA-MB-435
  GI50: > 100 µM
  TGI: > 100 µM
DU-145 prostate
  GI50: > 100 µM
  TGI: > 100 µM
SK-OV-3 ovarian
  GI50: > 100 µM
  TGI: > 100 µM
MCF7 breast
  GI50: > 100 µM
  TGI: > 100 µM
UO-31 renal
  GI50: > 100 µM
  TGI: > 100 µM
SF-539 CNS
  GI50: > 100 µM
  TGI: > 100 µM
BT-549 breast
  GI50: > 100 µM
  TGI: > 100 µM
SF-295 CNS
  GI50: > 100 µM
  TGI: > 100 µM
CCRF-CEM leukemia
  GI50: > 100 µM
  TGI: > 100 µM
NCI-H522 lung
  GI50: > 100 µM
  TGI: > 100 µM
SF-268 CNS
  GI50: > 100 µM
  TGI: > 100 µM
K-562 leukemia
  GI50: > 100 µM
  TGI: > 100 µM
786-0 renal
  GI50: > 100 µM
  TGI: > 100 µM
IGROV1 ovarian
  GI50: > 100 µM
  TGI: > 100 µM
HL-60(TB) leukemia
  GI50: > 100 µM
  TGI: > 100 µM
TK-10 renal
  GI50: > 100 µM
  TGI: > 100 µM
CAKI-1 renal
  GI50: > 100 µM
  TGI: > 100 µM
HT29 colon
  GI50: > 100 µM
  TGI: > 100 µM
SNB-19 CNS
  GI50: > 100 µM
  TGI: > 100 µM
NCI-H460 lung
  GI50: > 100 µM
  TGI: > 100 µM
SW-620 colon
  GI50: > 100 µM
  TGI: > 100 µM
MOLT-4 leukemia
  GI50: > 100 µM
  TGI: > 100 µM
A498 renal
  GI50: > 100 µM
  TGI: > 100 µM
MALME-3M melanoma
  GI50: > 100 µM
  TGI: > 100 µM
OVCAR-4 ovarian
  GI50: > 100 µM
  TGI: > 100 µM
UACC-257 melanoma
  GI50: > 100 µM
  TGI: > 100 µM
UACC-62 melanoma
  GI50: > 100 µM
  TGI: > 100 µM
HCT-116 colon
  GI50: > 100 µM
  TGI: > 100 µM
SNB-75 CNS
  GI50: > 100 µM
  TGI: > 100 µM
NCI-H226 lung
  GI50: > 100 µM
  TGI: > 100 µM
HS 578T breast
  GI50: > 100 µM
  TGI: > 100 µM
HCT-15 colon
  GI50: > 100 µM
  TGI: > 100 µM
HOP-62 NSCLC
  GI50: > 100 µM
  TGI: > 100 µM
